Here are results for 25 molecules from PubChem BioAssay (NCI).

Structures are written as SMILES.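 Protocol summary: plate cells (96-well), add compound at 5 concentrations, incubate 48 h, interpolate endpoints linearly. TGI marks complete inhibition of growth.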

One assay relates to SNB-19 CNS. The assay is described as follows: NCI tumour cell line growth inhibition, 48 h.
Molecule `COCO[C@@H]1C[C@H]2C(=O)Nc3ccccc3C(=O)N2C1` registered a TGI above 100 µM.
`CC(C)(C)OC(=O)NCCCCC1NC(=O)[C@@H]2Cc3c([nH]c4ccccc34)C(C3CCCCC3)N2C1=O` (stereo not given in full) yielded a TGI above 100 µM.
On the same count and under the same terms, the value for `O=[N+]([O-])c1ccc2c(c1)c(OCc1ccccc1)nn2Cc1ccccc1` was above 100 µM; that for `COC(=O)c1ccccc1CC1Cc2ccc3c(c2C1=O)CCCC3` (stereo not given) was above 100 µM; that for `COc1ccc2c(c1)/C(=C/CCN(C)C)c1ccccc1S2` was above 100 µM.
Same read-out and setting: the value for `CC1(C)OC(=O)N(c2ccccc2)C12C=Cc1cc([N+](=O)[O-])cc([N+](=O)[O-])c1O2` (stereo not given) was above 100 µM.

The subject of another assay is RXF 393 renal. The assay is described as follows: NCI tumour cell line growth inhibition, 48 h.
As to `COc1ccc(-c2cc(O)c3nc4ccccc4n3c2)cc1`, the TGI was above 100 µM.
The same measure, in the same setting: the value for `CCOC(=O)c1csc(NC(=O)CN2CCOCC2)n1` was above 100 µM; that for `CC(=O)NC(Cc1ccc(O)cc1)C(=O)O` (stereo not given) was above 100 µM.
Molecule `Cc1ccc(N=NC(=Nc2ccccc2)c2ccc(N(CCC#N)CCC#N)cc2)cc1` displayed a TGI of 80.1 µM.
Still for that read-out and setting: the value for `O=c1ccc(-c2ccccc2)n[nH]1` was above 100 µM; that for `CC(=O)O[C@@H]1[C@H](C(C)C)[C@@H](OC(C)=O)C/C(C)=C/CC[C@]2(C)O[C@@H]12` was above 100 µM.
`O=C(N/N=C(/COc1ccc(Cl)cc1)N=Cc1ccncc1)c1ccncc1`: the TGI is above 100 µM.
Still for that read-out and setting: the value for `C1CN(c2nc3c(nnc4nc(N5CCOCC5)sc43)s2)CCO1` was above 100 µM.
The molecule `COc1ccc2cc(NC(=O)N/N=C\c3ccc([N+](=O)[O-])cc3)ccc2c1` came in with a TGI of 45.1 µM.
On the same count and under the same terms, the value for `Nc1nc(SCCc2ccccc2)c2[nH]cnc2n1` was above 100 µM; that for `Cc1nc2n(c1/C=C1/C(=O)Nc3cccc(Cl)c31)CCS2` was 50.6 µM.
For `c1ccc(-c2nc(-c3ccccc3SSc3ccccc3-c3nc(-c4ccccc4)nn3-c3ccccc3)n(-c3ccccc3)n2)cc1`, the TGI is above 100 µM.
On the same count and under the same terms, the value for `COCO[C@@H]1C[C@H]2C(=O)Nc3ccccc3C(=O)N2C1` was 41.7 µM; that for `Cc1ccc(Cl)c2[nH]c(-c3ccccc3)cc(=O)c12` was above 100 µM.
Still for that read-out and setting: in the case of `CC(C)(C)OC(=O)NCCCCC1NC(=O)[C@@H]2Cc3c([nH]c4ccccc34)C(C3CCCCC3)N2C1=O` (stereo not given in full) it was 25.6 µM; in that of `O=[N+]([O-])c1ccc2c(c1)c(OCc1ccccc1)nn2Cc1ccccc1`, above 100 µM.
Same read-out and setting: in the case of `O=C1CCCc2cc3c(cc21)CC1(Cc2ccccc2C1)C3` it was 82.5 µM.
On to `COc1ccc2c(c1)/C(=C/CCN(C)C)c1ccccc1S2`, for which the TGI was above 100 µM.
Same read-out and setting: the value for `N#CC1(C#N)N[C@@H](c2ccsc2)[C@H]2C(=O)N(c3ccccc3)C(=O)[C@H]21` was above 100 µM.
On the same count and under the same terms, the value for `CC1(C)OC(=O)N(c2ccccc2)C12C=Cc1cc([N+](=O)[O-])cc([N+](=O)[O-])c1O2` (stereo not given) was above 100 µM.

A further assay deals with MOLT-4 leukemia. The assay is described as follows: NCI tumour cell line growth inhibition, 48 h.
For the molecule `COc1ccc(-c2cc(O)c3nc4ccccc4n3c2)cc1`, the TGI was above 100 µM.
Same read-out and setting: in the case of `CCOC(=O)c1csc(NC(=O)CN2CCOCC2)n1` it was 48.5 µM; in that of `CC(=O)NC(Cc1ccc(O)cc1)C(=O)O` (stereo not given), above 100 µM.
Still for that read-out and setting: in the case of `Cc1ccc(N=NC(=Nc2ccccc2)c2ccc(N(CCC#N)CCC#N)cc2)cc1` it was above 100 µM.
On the same count and under the same terms, in the case of `O=c1ccc(-c2ccccc2)n[nH]1` it was above 100 µM.
Regarding `CC(=O)O[C@@H]1[C@H](C(C)C)[C@@H](OC(C)=O)C/C(C)=C/CC[C@]2(C)O[C@@H]12`, the TGI is above 100 µM.
As to `C[C@@H]1CC[C@]2(C(=O)O)CC[C@]3(C)C(=CC[C@@H]4[C@@]5(C)CC[C@H](O)C(C)(C)[C@@H]5CC[C@]43C)[C@@H]2[C@]1(C)O`, the TGI amounted to 18.3 µM.
On the same count and under the same terms, the value for `O=C(N/N=C(/COc1ccc(Cl)cc1)N=Cc1ccncc1)c1ccncc1` was above 100 µM.
The same measure, in the same setting: in the case of `C1CN(c2nc3c(nnc4nc(N5CCOCC5)sc43)s2)CCO1` it was above 100 µM; in that of `COc1ccc2cc(NC(=O)N/N=C\c3ccc([N+](=O)[O-])cc3)ccc2c1`, above 100 µM.
Same read-out and setting: the value for `COc1ccc(N/N=C2\CCOc3ccc(C)cc3C2=O)cc1` was 85.4 µM.
In turn, `ClCCN1CCC2(CC1)SSC1(CCN(CCCl)CC1)S2` yielded a TGI above 100 µM.
The same measure, in the same setting: in the case of `Nc1nc(SCCc2ccccc2)c2[nH]cnc2n1` it was above 100 µM.
In turn, `Cc1nc2n(c1/C=C1/C(=O)Nc3cccc(Cl)c31)CCS2` displayed a TGI above 100 µM.
On the same count and under the same terms, the value for `CCOC(=O)C(SCCO)C(C(=O)OCC)n1cnc2c(=O)[nH]c(NC(C)=O)nc21` (stereo not given) was above 100 µM; that for `c1ccc(-c2nc(-c3ccccc3SSc3ccccc3-c3nc(-c4ccccc4)nn3-c3ccccc3)n(-c3ccccc3)n2)cc1` was above 100 µM.
In turn, `Cc1ccc(Cl)c2[nH]c(-c3ccccc3)cc(=O)c12` showed a TGI above 100 µM.
Take `CC(C)(C)OC(=O)NCCCCC1NC(=O)[C@@H]2Cc3c([nH]c4ccccc34)C(C3CCCCC3)N2C1=O` (stereo not given in full): the TGI was 44.9 µM.
The same measure, in the same setting: the value for `O=[N+]([O-])c1ccc2c(c1)c(OCc1ccccc1)nn2Cc1ccccc1` was above 100 µM; that for `O=C1CCCc2cc3c(cc21)CC1(Cc2ccccc2C1)C3` was 19.3 µM; that for `COC(=O)c1ccccc1CC1Cc2ccc3c(c2C1=O)CCCC3` (stereo not given) was 46.5 µM.
As to `COc1ccc2c(c1)/C(=C/CCN(C)C)c1ccccc1S2`, the TGI is above 100 µM.
`N#CC1(C#N)N[C@@H](c2ccsc2)[C@H]2C(=O)N(c3ccccc3)C(=O)[C@H]21`: the TGI is above 100 µM.
As to `CC1(C)OC(=O)N(c2ccccc2)C12C=Cc1cc([N+](=O)[O-])cc([N+](=O)[O-])c1O2` (stereo not given), the TGI is above 100 µM.

The subject of the next assay is MALME-3M melanoma. The experiment in a line: NCI tumour cell line growth inhibition, 48 h.
The molecule `COc1ccc(-c2cc(O)c3nc4ccccc4n3c2)cc1` had a TGI above 100 µM.
On the same count and under the same terms, the value for `CC(=O)NC(Cc1ccc(O)cc1)C(=O)O` (stereo not given) was above 100 µM; that for `O=c1ccc(-c2ccccc2)n[nH]1` was above 100 µM.
Same read-out and setting: in the case of `CC(=O)O[C@@H]1[C@H](C(C)C)[C@@H](OC(C)=O)C/C(C)=C/CC[C@]2(C)O[C@@H]12` it was above 100 µM; in that of `C[C@@H]1CC[C@]2(C(=O)O)CC[C@]3(C)C(=CC[C@@H]4[C@@]5(C)CC[C@H](O)C(C)(C)[C@@H]5CC[C@]43C)[C@@H]2[C@]1(C)O`, 25.7 µM.
In turn, `O=C(N/N=C(/COc1ccc(Cl)cc1)N=Cc1ccncc1)c1ccncc1` returned a TGI above 100 µM.
`C1CN(c2nc3c(nnc4nc(N5CCOCC5)sc43)s2)CCO1` returned a TGI above 100 µM.
In turn, `COc1ccc2cc(NC(=O)N/N=C\c3ccc([N+](=O)[O-])cc3)ccc2c1` yielded a TGI above 100 µM.
The molecule `COc1ccc(N/N=C2\CCOc3ccc(C)cc3C2=O)cc1` returned a TGI of 38.7 µM.
Consider `ClCCN1CCC2(CC1)SSC1(CCN(CCCl)CC1)S2`, for which the TGI was found to be 73.6 µM.
Same read-out and setting: in the case of `Nc1nc(SCCc2ccccc2)c2[nH]cnc2n1` it was above 100 µM; in that of `Cc1nc2n(c1/C=C1/C(=O)Nc3cccc(Cl)c31)CCS2`, above 100 µM.
On the same count and under the same terms, in the case of `CCOC(=O)C(SCCO)C(C(=O)OCC)n1cnc2c(=O)[nH]c(NC(C)=O)nc21` (stereo not given) it was above 100 µM; in that of `c1ccc(-c2nc(-c3ccccc3SSc3ccccc3-c3nc(-c4ccccc4)nn3-c3ccccc3)n(-c3ccccc3)n2)cc1`, above 100 µM; in that of `COCO[C@@H]1C[C@H]2C(=O)Nc3ccccc3C(=O)N2C1`, above 100 µM.
